Measured values published in patent US20260315446A1, “ANTIFUNGAL COMPOUNDS AND USES THEREOF” (priority 2023, published 2026).

Assays:
[1] = target: T1, C. albicans FKBP12 and CnA-CnB-calmodulin complex (UniProt C4YFI3+C4YS24+P28870); test: Biolayer interferometry ternary complex formation; format: binding, Candida albicans; conditions: BLI, 10 μM compound, steady-state and kinetic analyses
T1 construct: N-tagged CnA 54-609, untagged CnB and calmodulin co-expressed in Tni insect cells
Protocol: To better understand the relationship between structure and activity of these analogs, FK506 analog, JH-FK-02 was tested, and one FK520 analog, JH-FK-05 was tested, for their binding dynamics to CnA and CnB by biolayer interferometry (BLI). Purified and biotinylated (Avi-tagged) FKBP12 from A. fumigatus and C. albicans were loaded onto streptavidin sensors in the presence of an inhibitor, followed by titration of the respective CnA-CnB-calmodulin complex, also in the presence of an inhibitor. Data were double referenced using parallel reference sensors and sample blanks.
Biolayer interferometry (BLI) experiments were completed using either A. fumigatus or C. albicans FKBP12 and CnA/CnB/calmodulin complexes, along with compounds FK506, APX879, FK520, JH-FK-02, and JH-FK-05. Initial buffer (25 mM Tris, 200 mM NaCl, and 1 mM TCEP [pH 8.0]) was prepared using 1 M Tris-HCl (pH 8.0, catalog no. T1080; Teknova), 5 M sodium chloride (catalog no. S0251; Teknova), TCEP (catalog no. M115; Soltec Ventures, Inc.), and was readjusted to pH 8 before sterile filtering. […]
Data were processed and analyzed using ForteBio Data Analysis software version 11.1.3.10. […] Kinetics data were analyzed using the “association and dissociation curve fitting” option utilizing a 1:1 model. […]

[2] = tested on: germinal center (GC) B cells; test: In vivo immunosuppression, germinal center B cells (Example 1); parameters: species or system mouse (C57BL/6); conditions: daily i.p., FK506 5 mg/kg or JH-FK-05 60 mg/kg; day 7
Protocol: (§1) Based on the in vitro evidence of reduced immunosuppressive activity of JH-FK-05, it was hypothesized that this reduction would translate into reduced immunosuppression in an in vivo model. The murine model for immunosuppression measures the T cell-dependent proliferation of two immune cell subtypes in response to immunization with an antigen. Animals were treated daily via intraperitoneal (i.p.) injection with vehicle, 5 mg/kg FK506, or 60 mg/kg JH-FK-05, beginning on day −1 and ending on day 7. […] On day 0, animals were immunized with NP-OVA to stimulate T cell-dependent signaling that would result in proliferation of T follicular helper (Tfh) cells and germinal center (GC) B cells. Animals were sacrificed on day 7, and the proportions of Tfh and GC B cells in the lymph nodes were measured. […]
(§2) Groups of 6 female C57BL/6 mice (Jackson Laboratory) were treated daily by intraperitoneal (i.p.) injection with about 100 μL vehicle, 5 mg/kg FK506, or 60 mg/kg JH-FK-05 beginning on day −1. […] Mice were treated and monitored daily until they were sacrificed on day 7. Draining lymph nodes were harvested on day 7, and the populations of T follicular helper cells and GC B cells were analyzed by flow cytometry. Tfh and GC B cells were measured from T Cell Receptor β (TCRβ^+) CD4^+CD44^hi cells and TCRβ^−CD19^+ cells, respectively.

[3] = tested on: T follicular helper (Tfh) cells; test: In vivo immunosuppression, T follicular helper cells (Example 1); parameters: species or system mouse (C57BL/6); conditions: daily i.p., FK506 5 mg/kg or JH-FK-05 60 mg/kg; day 7
Protocol: as §1, §2

T1 sequence (P28870 whole entry): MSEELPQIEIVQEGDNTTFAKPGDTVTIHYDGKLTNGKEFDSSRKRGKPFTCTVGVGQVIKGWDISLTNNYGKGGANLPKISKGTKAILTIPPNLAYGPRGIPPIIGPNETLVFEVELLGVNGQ
T1 sequence (C4YFI3 54-609): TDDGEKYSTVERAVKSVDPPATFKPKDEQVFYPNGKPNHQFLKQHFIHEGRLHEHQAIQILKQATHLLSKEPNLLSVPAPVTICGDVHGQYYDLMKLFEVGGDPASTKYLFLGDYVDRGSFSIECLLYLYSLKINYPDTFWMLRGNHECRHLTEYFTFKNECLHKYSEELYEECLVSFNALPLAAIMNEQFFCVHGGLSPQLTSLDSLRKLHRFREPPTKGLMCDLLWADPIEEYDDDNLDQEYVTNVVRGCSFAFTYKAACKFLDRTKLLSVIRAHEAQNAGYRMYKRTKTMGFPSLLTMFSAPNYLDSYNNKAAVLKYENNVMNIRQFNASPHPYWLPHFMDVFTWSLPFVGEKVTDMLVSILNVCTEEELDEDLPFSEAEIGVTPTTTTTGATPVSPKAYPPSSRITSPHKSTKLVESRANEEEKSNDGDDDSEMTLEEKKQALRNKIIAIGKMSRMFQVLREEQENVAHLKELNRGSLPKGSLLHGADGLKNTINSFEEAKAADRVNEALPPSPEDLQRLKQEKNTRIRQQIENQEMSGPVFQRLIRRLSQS
T1 sequence (C4YS24 1-173): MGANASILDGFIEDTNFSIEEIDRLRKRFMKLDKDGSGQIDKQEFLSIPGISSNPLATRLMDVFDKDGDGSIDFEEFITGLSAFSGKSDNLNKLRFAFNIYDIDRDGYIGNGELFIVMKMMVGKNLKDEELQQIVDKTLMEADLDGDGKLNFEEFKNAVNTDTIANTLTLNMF
T1 sequence (P23286 whole entry partner): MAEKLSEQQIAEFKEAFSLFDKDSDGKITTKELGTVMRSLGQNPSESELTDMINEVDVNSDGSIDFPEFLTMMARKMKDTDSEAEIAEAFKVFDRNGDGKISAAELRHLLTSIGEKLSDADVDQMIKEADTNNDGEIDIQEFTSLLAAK

SMILES	affinity of target complex formation in presence of analog [1]	proliferation/presence of GC B cells [2]	proliferation/presence of Tfh cells [3]
CC[C@@H]1/C=C(\C)C[C@H](C)C[C@H](OC)[C@H]2O[C@@](O)(C(=O)C(=O)N3CCCC[C@H]3C(=O)O[C@H](/C(C)=C/[C@@H]3CC[C@@H](O)[C@H](OC)C3)[C@H](C)[C@@H](O)C/C1=N/NC(C)=O)[C@H](C)C[C@@H]2OC [JH-FK-05]	affinities similar to those of the parent compounds	did not reduce the presence of either cell type and was statistically indistinguishable from the vehicle treatment	did not reduce the presence of either cell type and was statistically indistinguishable from the vehicle treatment
C=CC[C@@H]1/C=C(\C)C[C@H](C)C[C@H](OC)[C@H]2O[C@@](O)(C(=O)C(=O)N3CCCC[C@H]3C(=O)O[C@H](/C(C)=C/[C@@H]3CC[C@@H](O)[C@H](OC)C3)[C@H](C)[C@@H](O)C/C1=N/NC(=O)CC)[C@H](C)C[C@@H]2OC [JH-FK-02]	affinities similar to those of the parent compounds	–	–
C=CCC1C=C(C)CC(C)CC(OC)C2OC(O)(C(=O)C(=O)N3CCCCC3C(=O)OC(C(C)=CC3CCC(O)C(OC)C3)C(C)C(O)CC1=O)C(C)CC2OC (stereo not drawn) [FK506, reference compound]	–	significantly reduced the proliferation	significantly reduced the proliferation
